Measurements from US12576155B2, “Senolytic and antiinflammatory prodrugs and methods of use thereof” (priority 2019, dated 2026).

Tested on: SA-β-gal-positive senescent cells in bleomycin-injured lungs
Experiment: Bleomycin-induced lung injury (lung fibrosis and senescence) mouse model
Assay type: in vivo, mice
Method: All drugs were mixed in 90% PBS, 5% Tween-80 (P1754, Sigma), and 5% polyethylene glycol (PEG) (81172, Sigma) and administered to mice by intraperitoneal (i.p.) injection. For treating bleomycin-injured young mice, SSK1 (0.5 mg/kg) or vehicle were given consecutive two days every week for five weeks. For old mice (20-month-old), SSK1 (0.5 mg/kg), gemcitabine (0.5 mg/kg) or vehicle were administrated for continued 3 days every two weeks. Gemcitabine was purchased from MCE.
Bleomycin was purchased from Selleck. To induce lung senescence and fibrosis, young male and female mice (3-month-old) were subjected to transtracheal injection of bleomycin (1 mg/kg) as previously reported (Bivas-Benita et al., Eur J Pharm Biopharm 61, 214-218(2005))
Cultured cells were washed once with PBS and fixed in β-galactosidase staining fix solution for 15 min at room temperature. Cells were then washed three times with PBS and incubated with β-galactosidase staining solution (Beyotime Biotechnology) for 16-20 hours at 37° C. For 12-well plates, 1 ml of β-galactosidase staining solution was added to each well. The plate was sealed with Parafilm to prevent evaporation of the staining medium. After the overnight incubation, cells were washed with PBS and observed under a bright field microscope. For β-galactosidase staining of frozen sections, the frozen sections were dried at 37° C. for 20-30 min and then fixed in β-galactosidase staining fix solution for 15 min at room temperature. The frozen sections were washed three times with PBS and incubated with β-galactosidase staining solution overnight at 37° C. After completion of β-galactosidase staining, the sections were stained with eosin for 1-2 min, rinsed under running water for 1 min, differentiated in 1% acid alcohol for 10-20 sec, and washed again under running water for 1 min. Sections were dehydrated in increasing concentrations of alcohols and cleared in xylene. Excess xylene was drained and a coverslip was placed over the section. After drying, the sample was observed under a microscope.
Lung, liver, and kidney frozen sections stained with SA-β-Gal were quantified by ImageJ software (NIH) to measure the SA-β-Gal positive area. The total area was quantified by eosin positive area with ImageJ software (NIH). The relative positive SA-β-Gal positive cells were calculated with the SA-β-Gal positive area divided by the total area. Each mouse was measured with 3-5 regions.
For detecting the p21 expression in lungs, we conducted the immunohistochemical staining experiment for p21 with an immunohistochemical staining kit (SP-9000, ZSGB-BIO). Freshly isolated tissues were fixed by 10% formalin for one day and then transferred in 20% formalin for another day. The tissue blocks were then dehydrated and embedded in paraffin. The embedded tissues were cut and affixed on slides. Before immunohistochemical staining, the slides were deparaffinized, rehydrated, and performed antigen retrieve by high pressure and high temperature in Tris/EDTA pH 8.0 buffer solution. Immunohistochemical staining was conducted according to the manufacturers' instructions.
Total RNA was isolated using the Direct-zol RNA MiniPrep Kit (Zymo Research, R2072). […] Data were analyzed using the 2^(−ΔΔCt) method. […]

Which “Decline in physical functions (treadmill exhaustion distance)” value (SSK1 0.5 mg/kg i.p.) does the source give for `CC(=O)OCC1O[C@@H](Oc2ccc(COC(=O)Nc3ccn([C@@H]4O[C@H](CO)C(O)C4(F)F)c(=O)n3)cc2[N+](=O)[O-])C(OC(C)=O)C(OC(C)=O)[C@H]1OC(C)=O` (some centres unmarked) [SSK1] here?
Its value is “attenuated”.

What about the Lung fibrosis (SSK1 0.5 mg/kg i.p.) of the same compound?
The Lung fibrosis was “attenuated”.

What about the “p21-positive cells and other senescence-associated markers in lungs (immunohistochemistry, RT-qPCR)” value (SSK1 0.5 mg/kg i.p.) of the same compound?
The value was “decreased p21-positive cells and other senescence-associated markers”.

And the “Decrease of SA-β-gal-positive cells in lungs vs vehicle” value (SSK1 0.5 mg/kg i.p., five weeks)?
The value was 3.8 fold.

What about the “β-gal positive macrophages in injured lungs” value (SSK1 0.5 mg/kg, xCell analysis of RNA-seq, FIG. 6C) of the same compound?
The value was “reduction of β-gal positive macrophages was observed”.
